Molecular target: T1, TAS1R1-12H-372A/TAS1R3 -757R (Homo sapiens, UniProt Q7RTX0+Q7RTX1, C757R/Q12H)
T1 construct: expressed in transfected cells; host or cells: HEK293
T1 sequence (Q7RTX1 21-841): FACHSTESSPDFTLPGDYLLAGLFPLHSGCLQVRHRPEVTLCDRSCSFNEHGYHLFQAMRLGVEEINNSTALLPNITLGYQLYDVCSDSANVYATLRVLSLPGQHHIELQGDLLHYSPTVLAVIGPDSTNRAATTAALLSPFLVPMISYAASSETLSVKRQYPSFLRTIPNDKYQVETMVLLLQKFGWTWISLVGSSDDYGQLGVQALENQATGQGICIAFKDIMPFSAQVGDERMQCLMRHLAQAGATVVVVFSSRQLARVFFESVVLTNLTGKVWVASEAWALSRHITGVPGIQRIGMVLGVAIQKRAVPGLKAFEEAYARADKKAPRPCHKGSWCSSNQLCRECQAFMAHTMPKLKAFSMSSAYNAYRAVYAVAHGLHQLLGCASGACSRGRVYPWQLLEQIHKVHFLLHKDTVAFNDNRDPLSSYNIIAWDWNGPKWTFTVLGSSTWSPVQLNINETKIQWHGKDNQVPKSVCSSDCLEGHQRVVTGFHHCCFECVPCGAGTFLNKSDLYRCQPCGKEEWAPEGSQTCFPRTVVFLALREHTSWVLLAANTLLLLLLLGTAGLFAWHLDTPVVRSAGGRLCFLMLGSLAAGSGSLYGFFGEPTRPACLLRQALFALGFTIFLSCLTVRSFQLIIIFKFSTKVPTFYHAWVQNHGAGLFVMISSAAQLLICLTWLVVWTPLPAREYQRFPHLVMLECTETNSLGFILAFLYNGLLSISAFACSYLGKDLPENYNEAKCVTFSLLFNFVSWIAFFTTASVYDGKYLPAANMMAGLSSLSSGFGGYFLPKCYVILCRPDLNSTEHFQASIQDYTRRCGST
T1 sequence (Q7RTX0 21-852 C757R): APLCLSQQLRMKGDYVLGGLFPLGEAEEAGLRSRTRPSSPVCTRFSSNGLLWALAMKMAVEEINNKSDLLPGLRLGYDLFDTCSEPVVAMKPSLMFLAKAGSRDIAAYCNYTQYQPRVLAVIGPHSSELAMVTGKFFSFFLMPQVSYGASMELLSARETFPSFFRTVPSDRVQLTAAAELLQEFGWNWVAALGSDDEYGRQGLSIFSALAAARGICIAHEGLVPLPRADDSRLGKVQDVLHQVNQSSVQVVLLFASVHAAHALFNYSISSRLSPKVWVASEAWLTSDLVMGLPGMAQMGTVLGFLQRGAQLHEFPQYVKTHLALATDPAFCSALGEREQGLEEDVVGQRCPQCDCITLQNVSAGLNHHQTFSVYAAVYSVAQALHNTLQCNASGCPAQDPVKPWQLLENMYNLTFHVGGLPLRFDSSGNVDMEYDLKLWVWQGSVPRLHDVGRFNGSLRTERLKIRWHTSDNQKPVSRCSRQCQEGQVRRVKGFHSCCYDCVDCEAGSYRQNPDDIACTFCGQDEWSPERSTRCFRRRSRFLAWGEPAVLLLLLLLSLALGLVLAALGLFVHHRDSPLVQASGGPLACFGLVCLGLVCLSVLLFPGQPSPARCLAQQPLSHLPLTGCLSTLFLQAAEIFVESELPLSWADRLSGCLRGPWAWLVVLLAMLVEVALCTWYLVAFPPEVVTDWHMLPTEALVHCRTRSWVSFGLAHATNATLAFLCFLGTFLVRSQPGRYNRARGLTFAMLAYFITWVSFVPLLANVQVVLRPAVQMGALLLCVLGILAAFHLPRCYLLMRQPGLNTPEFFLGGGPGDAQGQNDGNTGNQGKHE
Test: Ca2+ imaging in HEK293 cells, Q12H amino acid substitution of TAS1R1
Format: cell-based
Details: vs. TAS1R1-12Q-372A/TAS1R3-757R; Figure S3
Excerpt: Intronless human TAS1Rs and Gαl6 expression constructs were generated in the pEF-DEST51 Gateway vector (Invitrogen) by genomic DNA-based methods. To subclone each gene into the vector, a Kozak cassette was introduced at the 5′ end before the start codon. Gαl6 chimeras were generated by PCR with mutagenic primers. The carboxyl-terminal tail of Gαl6, five-residue (EINLL) was replaced by its counterpart from Gαi3 (ECGLY; Gα16-i3), Gαgust (DCGLF; Gα16-gust), and Gα16-gust44 was generated as described. The integrity of all DNA constructs was confirmed by DNA sequencing. Point mutations in TAS1Rs were made using the same overlapping PCR strategy with mutagenic primers. […]
HEK293 cells were cultured at 37°C under a humidified atmosphere containing 5% CO2 in Dulbecco's modified Eagle's medium supplemented with 10% fetal bovine serum. […] The transfection efficiencies were estimated by visualizing DsRed fluorescence (data not shown) or by immunocytochemistry of TAS1R3, and were typically 50∼55% (Figure S4). […]
Another imaging system, FlexStation II (Molecular Devices) was used for TAS1R mutant analysis. […] Fluorescence changes (excitation at 485 nm, emission at 525 nm, and cutoff at 515 nm) were monitored at 2 sec intervals; 50 µl of HBSS supplemented with 2×tastants were added at 30 sec, and scanning was continued for an additional 120 sec. […]

N[C@@H](CCC(=O)O)C(=O)[O-].[Na+] [MSG, monosodium glutamate]
effect of the Q12H amino acid mutation of TAS1R1 on responses: did not affect

— PMC2725291, “Genetic and Molecular Basis of Individual Differences in Human Umami Taste Perception” (PLoS ONE, 2009)
